Experimental data as given in patent US20160313301A1, “METHOD FOR PREDICTING ANTITUMOR EFFICACY OF HSP90 INHIBITOR IN CANCER TREATMENT” (NIPPON KAYAKU KABUSHIKI KAISHA, priority 2013, published 2016).

Assays:
[1] = tested on: human ovarian cancer cells OVCAR-3; experiment: Anti-tumor test in mice transplanted subcutaneously with tumor (OVCAR-3); type: in vivo
[2] = tested on: client proteins and HSP90-related proteins in SK-OV-3 tumor; experiment: Immunoblot: change in expression amount of proteins in SK-OV-3 tumor after administration; type: in vivo, human; settings: 40 mg/kg tail vein
Protocol: (§1) Thirty micrograms of total protein was subjected to electrophoresis in 8% acrylamide gel. Then, the protein was transferred onto a PVDF membrane at a voltage of 100 V for 60 min at 4 °C. The PVDF membrane on which the protein had been transferred was blocked in TBS-Tween (0.1%) containing 5% milk at normal temperature for 60 min, followed by incubating with each of primary antibodies described below overnight at 4 °C. • Primary antibody (supplier, product number, dilution ratio, exposure time) • EGFR (Santa Cruz, sc-003, 1:500, 1 min) • HER2 (Santa Cruz, sc-284, 1:2000, 5 sec) • HER3 (Santa Cruz, sc-285, 1:400, 1 min) • Met (Santa Cruz, sc-161, 1:500, 5 min) • IGF-1R (Cell Signaling, #3027, 1:500, 15 sec) • Raf-1 (Santa Cruz, sc-133, 1:300, 5 min) • Stat3 (BD Transduction Laboratory, 610189, 1:500, 15 sec) • pAkt (Cell Signaling, #4058S, 1:500, 1 min) • Akt (Cell Signaling, #4691S, 1:2000, 15 sec) • pERK (Santa Cruz, sc-16982-R, 1:500, 1 min) • ERK (Invitrogen, 44-654G, 1:1000, 15 sec) • mTOR (Cell Signaling, #2983S, 1:500, 15 sec) • MEK (Cell Signaling, #9122S, 1:500, 1 min) • HSP90 (Enzo Life Science, SPA-830, 1:500, 15 sec) • HSP70 (Enzo Life Science, SPA-810, 1:2000, 15 sec) • Actin (Santa Cruz, sc-8432/HRP, 1:300, 5 min)
(§2) After incubation, the blot membrane was washed with TBS-Tween (0.1%) at normal temperature for 10 min three times to thereby remove excessive primary antibodies. Then, the membrane was incubated with an appropriate secondary antibody (anti-rabbit IgG HRP conjugate or anti-mouse IgG HRP conjugate) at normal temperature for 60 min. The membrane was washed with TBS-Tween (0.1%) at normal temperature for 10 min three times to thereby remove excessive secondary antibodies. Then, the membrane was incubated with ECL Western Blotting Detection Reagents (GE Healthcare) for 2 min, followed by exposing to an X-ray film. Thus, the signal of the intended protein was detected.
(§3) Tumors to be transplanted derived from human ovarian cancer cell lines SK-OV-3 and TOV-21G were prepared in the same manner as in Example 1.
(§4) Protein extraction liquid was obtained from each tumor as follows. The human ovarian cancer tumors maintained by passage in SCID mice were transplanted subcutaneously to the dorsums of SCID mice with trocars. When the tumor volume of each tumor reached about 300 mm^3, the triazole (A-1) synthesized as the HSP90 inhibitor in Synthetic Example 1 was administered into a tail vein of each of the mice at a dose of 40 mg/kg in the same manner as in Example 1. The tumors were removed before and 4 and 24 hours after administration. At each time point, the tumors were removed from three mice for the SK-OV-3 tumor and two mice for the TOV-21G tumor. Protein extraction liquids were obtained in the same manner as in Example 1. The total protein amount in each of the extraction liquids was quantified in the same manner as in Example 1.
(§5) The immunoblot method was used to verify change in expression amounts of the client proteins and the HSP90-related proteins in the SK-OV-3 and TOV-21G tumors to which the triazole compound (A-1) had been administered, in the same manner as in Example 1. The types and dilution ratios of primary antibodies and secondary antibodies used were the same as in Example 1.

[3] = tested on: client proteins and HSP90-related proteins in TOV-21G tumor; experiment: Immunoblot: change in expression amount of proteins in TOV-21G tumor after administration; type: in vivo, human; settings: 40 mg/kg tail vein
Protocol: as §1, §2, §3, §4, §5

[4] = SK-OV-3 tumor after administration
[5] = SK-OV-3 tumor, 4 hours after administration

CC(C)c1cc(-c2n[nH]c(=O)n2-c2ccc(CN3CCN(C)CC3)cc2)c(O)cc1O [A-1, 5-(2,4-dihydroxy-5-isopropyl-phenyl)-4-[4-(4-methyl-piperazin-1-ylmethyl)-phenyl]-2,4-dihydro-[1,2,4]triazol-3-one]
T/C % (lowest value from the beginning to the 21st day of administration) ([1]; OVCAR-3 s.c. in NOD/SCID mice, 40 mg/kg tail vein three times at 4 day intervals): 34.9%
anti-tumor effect (in words) ([1]; OVCAR-3 s.c. in mice): relatively highly effective
expression amount of total Akt [2, 4]: not changed
expression amount of total ERK [2, 4]: not changed
expression level of EGFR [2, 5]: significantly decreased
expression level of IGF-1R [2, 5]: significantly decreased
expression level of Met [2, 5]: significantly decreased
expression level of mTOR [2, 5]: significantly decreased
expression level of pAkt [2, 5]: significantly decreased
expression level of pERK [2, 5]: significantly decreased
expression amount of total Akt [3]: not changed
expression amount of total ERK [3]: not changed
expression level of EGFR [3]: decreased
expression level of HER2 [3]: decreased
expression level of IGF-1R [3]: decreased
expression level of Met [3]: decreased
expression level of mTOR [3]: decreased
expression level of pAkt [3]: decreased
